The results in this text go back to US7205314B2, “Compounds for the treatment of dementia related diseases” (AstraZeneca AB, priority 2001, dated 2007).

The term melting point denotes the temperature of the solid-liquid transition. In the case of `COCCOc1ccc2c(C3C(=O)Nc4ccc(C#N)cc43)nccc2c1` (stereo not shown) [Example 3, 3-[6-(2-Methoxyethoxy)isoquinolin-1-yl]-2-oxo-2,3-dihydro-1H-indole-5-carbonitrile], the melting point lay in the range of 214 to 219 °C.
